Laboratory results taken from ChEMBL document CHEMBL3870313, “Synthesis and structure-activity relationship study of tacrine-based pyrano[2,3-c]pyrazoles targeting AChE/BuChE and 15-LOX” (Eur J Med Chem, 2016).

Legend:
Acetylcholinesterase [1] = target: T1, Acetylcholinesterase (Electrophorus electricus, UniProt O42275)
Description: Inhibition of electric eel AChE using acetylthiocholine iodide as substrate incubated for 5 mins followed by substrate addition measured for 1 min by Ellman's method

Cholinesterase = Cholinesterase (Homo sapiens, UniProt P06276)
Description: Inhibition of human recombinant BChE using butyrylthiocholine iodide as substrate incubated for 5 mins followed by substrate addition measured for 1 min by Ellman's method

Acetylcholinesterase [2] = target: T1, Acetylcholinesterase; assay: Mixed type inhibition of electric eel AChE using acetylthiocholine iodide as substrate incubated for 5 mins followed by substrate addition measured for 1 min by Lineweaver-Burk plot analysis
[3] = target: Acetylcholinesterase (Electrophorus electricus) (UniProt O42275); assay: Potency index, ratio of tacrine IC50 to compound IC50 for electric eel AChE
in vitro [4] = conditions: human, HepG2 cells
Description: Cytotoxicity against human HepG2 cells assessed as cell viability at 1 uM after 24 hrs by MTT assay

in vitro [5] = conditions: human, HepG2 cells; remark: listed apart in the source
Description: Cytotoxicity against human HepG2 cells assessed as cell viability at 5 uM after 24 hrs by MTT assay

in vitro [6] = conditions: human, HepG2 cells; remark: listed apart in the source
Description: Cytotoxicity against human HepG2 cells assessed as cell viability at 10 uM after 24 hrs by MTT assay

in vitro [7] = conditions: human, HepG2 cells; remark: listed apart in the source
Description: Cytotoxicity against human HepG2 cells assessed as cell viability at 25 uM after 24 hrs by MTT assay

in vitro [8] = conditions: human, HepG2 cells; remark: listed apart in the source
Description: Cytotoxicity against human HepG2 cells assessed as cell viability at 50 uM after 24 hrs by MTT assay

in vitro [9] = conditions: human, HepG2 cells; remark: listed apart in the source
Description: Cytotoxicity against human HepG2 cells assessed as cell viability at 100 uM after 24 hrs by MTT assay

in vitro [10] = conditions: human, HepG2 cells; remark: listed apart in the source
Description: Cytotoxicity against human HepG2 cells assessed as cell viability at 300 uM after 24 hrs by MTT assay

T1 sequence (O42275 whole entry): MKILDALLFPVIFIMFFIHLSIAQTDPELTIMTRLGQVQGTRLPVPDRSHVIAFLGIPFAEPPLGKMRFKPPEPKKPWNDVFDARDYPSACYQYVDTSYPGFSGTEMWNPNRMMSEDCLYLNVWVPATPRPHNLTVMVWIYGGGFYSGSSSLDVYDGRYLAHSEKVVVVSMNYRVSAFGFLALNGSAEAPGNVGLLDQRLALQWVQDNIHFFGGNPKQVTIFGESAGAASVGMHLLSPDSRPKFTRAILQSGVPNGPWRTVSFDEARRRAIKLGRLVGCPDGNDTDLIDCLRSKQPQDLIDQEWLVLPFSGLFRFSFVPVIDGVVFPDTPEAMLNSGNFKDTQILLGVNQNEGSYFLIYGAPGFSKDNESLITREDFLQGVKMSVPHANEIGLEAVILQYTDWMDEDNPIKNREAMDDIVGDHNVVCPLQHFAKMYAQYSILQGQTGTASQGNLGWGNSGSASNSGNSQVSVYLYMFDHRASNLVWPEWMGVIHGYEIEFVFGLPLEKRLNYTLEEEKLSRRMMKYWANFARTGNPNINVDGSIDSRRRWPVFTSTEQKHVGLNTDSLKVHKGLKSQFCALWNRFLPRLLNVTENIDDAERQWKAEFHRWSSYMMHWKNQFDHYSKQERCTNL
Cholinesterase, sequence (P06276 whole entry): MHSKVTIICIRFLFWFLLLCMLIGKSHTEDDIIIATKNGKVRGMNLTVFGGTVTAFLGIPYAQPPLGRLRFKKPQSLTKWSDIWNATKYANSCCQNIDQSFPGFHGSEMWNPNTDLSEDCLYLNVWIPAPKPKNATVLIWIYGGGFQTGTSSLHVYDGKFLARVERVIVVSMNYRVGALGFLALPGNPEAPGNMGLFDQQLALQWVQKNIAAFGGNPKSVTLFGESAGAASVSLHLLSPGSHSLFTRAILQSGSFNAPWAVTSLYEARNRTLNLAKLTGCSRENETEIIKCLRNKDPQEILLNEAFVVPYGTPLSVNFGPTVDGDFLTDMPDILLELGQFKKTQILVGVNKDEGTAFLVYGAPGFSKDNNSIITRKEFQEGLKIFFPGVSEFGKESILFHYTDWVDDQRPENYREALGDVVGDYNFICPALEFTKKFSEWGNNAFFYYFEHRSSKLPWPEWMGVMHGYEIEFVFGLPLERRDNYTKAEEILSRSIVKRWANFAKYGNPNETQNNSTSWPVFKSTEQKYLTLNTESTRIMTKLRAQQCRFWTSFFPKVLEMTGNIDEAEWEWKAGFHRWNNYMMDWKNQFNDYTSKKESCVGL
Acetylcholinesterase (Electrophorus electricus), sequence (O42275 24-633 limits assumed): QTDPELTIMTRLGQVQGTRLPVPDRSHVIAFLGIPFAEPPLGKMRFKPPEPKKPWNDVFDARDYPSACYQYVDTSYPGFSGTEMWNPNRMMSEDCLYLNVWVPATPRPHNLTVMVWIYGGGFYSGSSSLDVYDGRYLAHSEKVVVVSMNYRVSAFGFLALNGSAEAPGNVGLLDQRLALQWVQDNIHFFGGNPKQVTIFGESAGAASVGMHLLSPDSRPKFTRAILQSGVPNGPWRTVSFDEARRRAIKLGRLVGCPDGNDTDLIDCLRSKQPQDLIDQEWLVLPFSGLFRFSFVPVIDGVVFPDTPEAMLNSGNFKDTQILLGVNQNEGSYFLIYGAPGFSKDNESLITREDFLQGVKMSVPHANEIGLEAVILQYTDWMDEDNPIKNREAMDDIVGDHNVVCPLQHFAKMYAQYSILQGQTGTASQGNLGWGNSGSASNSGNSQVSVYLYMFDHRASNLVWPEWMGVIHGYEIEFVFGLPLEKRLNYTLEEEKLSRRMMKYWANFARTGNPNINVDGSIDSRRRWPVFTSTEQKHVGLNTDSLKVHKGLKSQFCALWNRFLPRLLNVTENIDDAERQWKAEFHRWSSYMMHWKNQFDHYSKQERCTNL

SMILES	IC50 (Acetylcholinesterase [1]) [nM]	IC50 (Cholinesterase) [nM]	further results
CCCc1n[nH]c2c1C(c1ccc(OC)c(OC)c1)c1c(nc3c(c1N)CCCC3)O2 (stereo unspecified)	1470	365	
Nc1c2c(cc3c1C(c1ccccc1)c1c(-c4ccccc4)n[nH]c1O3)CCCC2 (stereo unspecified)	140	8	
Nc1c2c(cc3c1C(c1ccc(F)cc1)c1c(-c4ccccc4)n[nH]c1O3)CCCC2 (stereo unspecified)	34	7	Ki (Acetylcholinesterase [2]): 490 nM; Ratio IC50 [3]: 6; viability at 24 h, 1 µM (in vitro [4]): 101%; viability at 24 h, 5 µM (in vitro [5]): 100%; viability at 24 h, 10 µM (in vitro [6]): 100%; viability at 24 h, 25 µM (in vitro [7]): 99.7%; viability at 24 h, 50 µM (in vitro [8]): 98.4%; viability at 24 h, 100 µM (in vitro [9]): 89.9%; viability at 24 h, 300 µM (in vitro [10]): 73.4%
CC(C)C1c2c(-c3ccccc3)n[nH]c2Oc2nc3c(c(N)c21)CCCC3 (stereo unspecified)	15000	570	
CCCc1n[nH]c2c1C(c1ccc(C)cc1)c1c(nc3c(c1N)CCCC3)O2 (stereo unspecified)	120	13	
Nc1c2c(nc3c1C(c1ccccc1)c1c(-c4ccccc4)n[nH]c1O3)CCCCC2 (stereo unspecified)	54	9	
Cc1ccc(C2c3c(-c4ccccc4)n[nH]c3Oc3cc4c(c(N)c32)CCCC4)cc1 (stereo unspecified)	98	11	
CCCc1n[nH]c2c1C(c1ccc([N+](=O)[O-])cc1)c1c(nc3c(c1N)CCCC3)O2 (stereo unspecified)	744	29	
CCCc1n[nH]c2c1C(c1ccccc1)c1c(nc3c(c1N)CCCCC3)O2 (stereo unspecified)	650	43	
COc1ccc(C2c3c(-c4ccccc4)n[nH]c3Oc3cc4c(c(N)c32)CCCC4)cc1 (stereo unspecified)	81	7	viability at 24 h, 1 µM (in vitro [4]): 99.1%; viability at 24 h, 5 µM (in vitro [5]): 99.4%; viability at 24 h, 10 µM (in vitro [6]): 99.7%; viability at 24 h, 25 µM (in vitro [7]): 99.7%; viability at 24 h, 50 µM (in vitro [8]): 98.2%; viability at 24 h, 100 µM (in vitro [9]): 85.6%; viability at 24 h, 300 µM (in vitro [10]): 71.3%
CCCc1n[nH]c2c1C(c1ccc(C)cc1)c1c(nc3c(c1N)CSCC3)O2 (stereo unspecified)	1030	73	
CCCc1n[nH]c2c1C(c1cccc(Br)c1)c1c(nc3c(c1N)CCCC3)O2 (stereo unspecified)	472	15	
CCCc1n[nH]c2c1C(c1cc(OC)c(OC)c(OC)c1)c1c(nc3c(c1N)CCCC3)O2 (stereo unspecified)	900	42	
CCCc1n[nH]c2c1C(c1ccc(Cl)cc1)c1c(nc3c(c1N)CSCC3)O2 (stereo unspecified)	300	15	
CCCc1n[nH]c2c1C(c1ccc(Cl)cc1)c1c(nc3c(c1N)CCCC3)O2 (stereo unspecified)	200	10	
CCCc1n[nH]c2c1C(c1ccc(SC)cc1)c1c(nc3c(c1N)CCCC3)O2 (stereo unspecified)	201	8	
Nc1c2c(nc3c1C(c1ccccc1)c1c(-c4ccccc4)nn(-c4ccccc4)c1O3)CCCC2 (stereo unspecified)	> 200000	> 200000	
Nc1c2c(nc3c1C(c1ccc(Cl)cc1)c1c(-c4ccccc4)n[nH]c1O3)CCSC2 (stereo unspecified)	450	30	
CCCc1n[nH]c2c1C(c1ccc(Cl)cc1)c1c(nc3c(c1N)CCCCC3)O2 (stereo unspecified)	1060	75	
CCCc1n[nH]c2c1C(c1ccccc1OC)c1c(nc3c(c1N)CCCC3)O2 (stereo unspecified)	471	18	
COc1cc(C2c3c(-c4ccccc4)n[nH]c3Oc3nc4c(c(N)c32)CCCC4)cc(OC)c1OC (stereo unspecified)	1030	65	
CCCc1n[nH]c2c1C(c1ccc(N(C)C)cc1)c1c(nc3c(c1N)CCCC3)O2 (stereo unspecified)	347	24	
Nc1c2c(nc3c1C(c1ccccc1)c1c(-c4ccco4)n[nH]c1O3)CCCC2 (stereo unspecified)	100	15	
CCCc1n[nH]c2c1C(c1ccc(OC)cc1)c1c(nc3c(c1N)CCCC3)O2 (stereo unspecified)	52	6	
Nc1c2c(nc3c1C(c1ccc(Cl)cc1)c1c(-c4ccccc4)n[nH]c1O3)CCCCC2 (stereo unspecified)	1920	77	
CCCc1n[nH]c2c1C(c1cccc([N+](=O)[O-])c1)c1c(nc3c(c1N)CCCC3)O2 (stereo unspecified)	423	12	
Nc1c2c(cc3c1C(c1ccc(Cl)cc1)c1c(-c4ccccc4)n[nH]c1O3)CCCC2 (stereo unspecified)	260	21	
Nc1c2c(nc3c1C(c1ccccc1)c1c(-c4ccco4)nn(-c4ccccc4)c1O3)CCCC2 (stereo unspecified)	72	5	viability at 24 h, 1 µM (in vitro [4]): 99.6%; viability at 24 h, 5 µM (in vitro [5]): 95.8%; viability at 24 h, 10 µM (in vitro [6]): 90.3%; viability at 24 h, 25 µM (in vitro [7]): 85%; viability at 24 h, 50 µM (in vitro [8]): 81.4%; viability at 24 h, 100 µM (in vitro [9]): 75.7%; viability at 24 h, 300 µM (in vitro [10]): 67.4%
CCCc1n[nH]c2c1C(c1ccc(C#N)cc1)c1c(nc3c(c1N)CCCC3)O2 (stereo unspecified)	954	37	
